In PMC12386809, “Phenanthrene Monomers and Dimers from Juncus tenuis with Antiproliferative Activity and Synergistic Effect with Doxorubicin Against Human Colon Cancer Cell Lines” (International Journal of Molecular Sciences, 2025):
Where two headings read alike, the source gives them in different places.

Experiments:
[1] = tested on: HT22 cells (mouse hippocampal neuroblastoma cell line); design: method as in doi:10.1007/s11101-018-9561-5, PMID 25794817; details: 100 µM, 24 h; cited from earlier work
[2] = tested on: COLO 320/MDR-LRP multidrug-resistant human colonic adenocarcinoma cells; assay: MTT antiproliferative assay, COLO 320; type: cell-based; details: COLO 320 (multidrug-resistant), read-out: IC50 (µM) ± SD COLO 320
Protocol: (§1) The antiproliferative effects of the isolated phenanthrenes (compounds 1–19) were evaluated using human cancer cell lines, including doxorubicin-sensitive colonic adenocarcinoma COLO 205 and multidrug-resistant colonic adenocarcinoma COLO 320/MDR-LRP (which expresses P-glycoprotein [MDR1] and LRP), as well as non-cancerous human lung fibroblast CCD-19Lu cells. CCD-19Lu was chosen because it is a well-characterized, non-tumorigenic cell line commonly used to assess general cytotoxicity. Moreover, data from the literature support the use of lung fibroblast cell lines—including CCD-19Lu—as normal controls in studies involving colon cancer cells such as Colo 205 and Colo 320 [33]. The thiazolyl blue tetrazolium bromide (MTT) assay was employed to determine the concentration of each compound required to inhibit 50% of the cell viability (IC50), as summarized in Table 3.
(§2) The human colon adenocarcinoma cells—COLO 205 (CCL-222, doxorubicin-sensitive) and COLO 320/MDR-LRP (ATCC-CCL-220.1, multidrug-resistant, expressing P-gp)—were cultured in RPMI 1640 medium supplemented with 10% heat-inactivated fetal bovine serum, 2 mM of L-glutamine, 1 mM of sodium pyruvate, and 100 mM of HEPES. The non-cancerous human lung fibroblast cell line CCD-19Lu was maintained in Eagle’s Minimal Essential Medium (EMEM; containing 4.5 g/L of glucose) supplemented with a non-essential amino acid mixture, selected vitamins, and 10% heat-inactivated fetal bovine serum. All of the cell lines were detached using 0.25% trypsin and 0.02% EDTA for 5 min at 37 °C. The cell lines were obtained from LGC Promochem (Teddington, England).
(§3) Human colonic adenocarcinoma cell lines—doxorubicin-sensitive COLO 205 and multidrug-resistant COLO 320—as well as the non-cancerous human lung fibroblast cell line CCD-19Lu were used to evaluate the effects of the test compounds on cell proliferation. The assays were conducted in 96-well flat-bottomed microtiter plates. Stock solutions of the compounds were prepared in dimethyl sulfoxide (DMSO), with the final DMSO concentration kept below 1% in all samples. The compounds were diluted in 100 µL of the appropriate culture medium. Adherent cells were cultured in EMEM supplemented with 10% heat-inactivated fetal bovine serum and seeded into 96-well plates at a density of 6 × 10^3 cells per 100 µL per well. The cells were allowed to adhere for 24 h at 37 °C in a humidified incubator with 5% CO2. After incubation, the medium was removed and replaced with 100 µL of fresh medium. Serial dilutions of the compounds were prepared in separate plates and added to the cells, starting from a concentration of 100 µM with twofold serial dilutions (final concentration range: 100–0.19 µM). The cells were then incubated for 72 h at 37 °C. At the end of the incubation period, 20 µL of thiazolyl blue tetrazolium bromide (MTT) solution (5 mg/mL, Sigma) was added to each well. After 4 h of incubation at 37 °C, 100 µL of 10% sodium dodecyl sulfate (SDS) in 0.01 M HCl was added to solubilize the formazan crystals, and the plates were incubated overnight at 37 °C. Cell viability was assessed by measuring the optical density (OD) at 540/630 nm using a Multiscan EX ELISA reader (Thermo Labsystems, Cheshire, WA, USA).
(§4) The inhibitory concentration that reduced cell growth by 50% (IC50) was determined from the dose–response curves. The percent inhibition was calculated using the formula100 − ((OD_sample − OD_medium control)/(OD_cell control − OD_medium control)) × 100
(§5) Dose–response curves were generated by plotting the percent inhibition against the logarithm of the compound concentrations and fitted using Prism5 software (Version 6, GraphPad Software Inc., San Diego, CA, USA). The IC50 values were derived from four independent experiments conducted in parallel for each cell line and are reported as the mean values.

[3] = tested on: COLO 205 (doxorubicin-sensitive) human colonic adenocarcinoma cells; assay: MTT antiproliferative assay, COLO 205; type: cell-based; details: read-out: IC50 (µM) ± SD COLO 205
Protocol: as §1, §2, §3, §4, §5

[4] = tested on: CCD-19Lu non-cancerous human lung fibroblast cells; assay: MTT antiproliferative assay, CCD-19Lu; type: cell-based; details: 72 h, CCD-19Lu non-tumorigenic fibroblasts, read-out: IC50 (µM) ± SD CCD-19Lu
Protocol: as §1, §2, §3, §4, §5

[5] = tested on: multidrug-resistant COLO 320 cells; assay: Drug combination assay with doxorubicin (Chou-Talalay, MTT); type: cell-based, human; details: for CI at ED50 (combination index): combination with doxorubicin, COLO 320, 72 h, Chou-Talalay; for Interaction: interaction with doxorubicin in COLO 320, class from CI
Protocol: One promising approach involves the discovery of new bioactive natural products. To explore this, a chemosensitivity assay was conducted to examine the in vitro interactions between the isolated compounds and the antineoplastic agent doxorubicin, a substrate of P-glycoprotein (P-gp). A combination chemotherapy model was applied using human COLO 320 colon carcinoma cells. The combination index (CI), calculated according to the Chou–Talalay method, was used to evaluate drug–drug interactions, classifying them as synergistic (CI < 1), additive (CI = 1), or antagonistic (CI > 1) (Table 4).
The multidrug-resistant COLO 320 cell line was used to perform the drug combination assay. Doxorubicin (2 mg/mL, Teva Pharmaceuticals, Budapest, Hungary) was serially diluted horizontally, starting with 8.6 µM. The resistance modifier was subsequently diluted vertically, with the starting concentration determined based on the IC50 value. Doxorubicin was diluted horizontally in 100 µL, while the resistance modifiers were diluted vertically in 50 µL in the microtiter plate. The compounds and doxorubicin were prepared as separate dilutions. The cells were seeded at a density of 6 × 10^3 cells per well into 100 µL of medium and incubated for 24 h at 37 °C in a 5% CO2 atmosphere prior to treatment. After this period, the culture medium was removed, and 50 µL of fresh medium was added to each well, followed by the addition of 50 µL of the diluted compounds, resulting in a final volume of 200 µL per well. The plates were then incubated for 72 h at 37 °C under 5% CO2. The cell viability was assessed at the end of incubation using the MTT assay, as described previously. Drug interactions were analyzed using CompuSyn software (Version 1.00).
The dose–response curves for individual agents and their combinations were fitted to a linear model based on the median-effect equation to calculate the median effective dose (IC50) and the slope (m). The quality of the fit was evaluated using the linear correlation coefficient (r), and only data with r > 0.90 are reported. The extent of drug interaction was quantified using the combination index (CI), where CI ≈ 1 indicated an additive effect, CI < 1 signified synergy, and CI > 1 denoted antagonism.

[6] = tested on: HeLa cells; design: method as in PMID 33348712; details: cited from earlier work

| SMILES | decrease in MTT reduction [1] | IC50 ([2]; Homo sapiens, COLO 320, 72 h) | IC50 ([3]; 72 h) | IC50 ([3]; Homo sapiens, COLO 205, 72 h) | IC50 [4] | CI at ED50 (combination index) [5] | IC50 ([2]; 72 h) | Interaction [5] | IC50 [6] |
| --- | --- | --- | --- | --- | --- | --- | --- | --- | --- |
| C=CC1=C(C)C(=O)C=C2c3ccc(O)c(C)c3CCC21O (stereo not shown) [juncuenin D, reference compound] | 23.7% |  |  |  |  |  |  |  |  |
| C=Cc1c(C)c(O)cc2c1CCc1c-2ccc(O)c1C [juncuenin B, reference compound] | 13.6% |  |  |  |  |  |  |  |  |
| C=Cc1cc(O)cc2c1-c1cc(-c3cc4c(c(C)c3O)CCc3cc(O)cc(C=C)c3-4)c(O)c(C)c1CC2 [Compound 19, effususin A] |  | 17.3 ± 0.87 µM | 10.9 ± 0.51 µM | 10.9 µM | 18.8 ± 0.06 µM |  |  |  |  |
| C=Cc1cc(CO)cc2c1-c1ccc(O)c(C)c1CC2 [Compound 13] |  | 35.2 ± 4.68 µM |  | 37 ± 3.28 µM | 69.3 ± 1.77 µM | 0.163 |  |  |  |
| C=Cc1cc(O)cc2c1-c1ccc(O)c(C)c1CC2 [Compound 10, effusol] | 9.9% | 49.7 µM | 52.7 ± 1.85 µM | 52.7 µM | 96 ± 2.66 µM | 1.123 | 49.7 ± 2.12 µM | slight antagonism | 2.3 µM |
| C=Cc1c(C)c(O)cc2c1ccc1c(C)c(O)ccc12 [Compound 8, dehydrojuncuenin B] | 8.4% | 17.9 ± 1.59 µM |  | 20.7 ± 0.47 µM | 22.8 ± 0.55 µM | 2.126 |  | antagonism (1.45 < CI < 3.3, antagonism) |  |
| C=Cc1cc(C(=O)O)cc2c1-c1ccc(O)c(C)c1CC2 [Compound 15] |  | 47.6 ± 1.01 µM |  | 45.4 ± 2.16 µM | > 100 µM | 1.927 |  | antagonism (1.45 < CI < 3.3, antagonism) |  |
| C=Cc1cc(O)cc2ccc3c(c12)C=CC(=O)C3(C)O (stereo not shown) [Compound 1, Tenuin A] |  | > 100 µM |  | > 100 µM | > 100 µM |  |  |  |  |
| C=Cc1cc(C=O)cc2c1-c1ccc(O)c(C)c1CC2 [Compound 14] |  | 39.58 ± 0.27 µM |  | 57.2 ± 3.98 µM | 66.4 ± 1.58 µM | 0.219 |  |  |  |
| C=Cc1cc2c(ccc3c(C)c(O)ccc32)cc1CO [Compound 2, tenuin B] |  | 38.3 µM | 48.4 ± 1.03 µM | 48.4 µM | 96.08 ± 0.82 µM |  | 38.3 ± 1.84 µM | very strong synergism (CI < 0.1 indicates very strong synergism) |  |
